Experiment: mn = molality of the nth substance listed, in mol/kg
Conditions: 101 kPa, Liquid

O=S(=O)(O)CCCCNC(CO)(CO)CO [N-tris(Hydroxymethyl)methyl-4-aminobutanesulfonic acid] + O
mass density [kg/m3]
Conditions	m1 = 0.9378	m1 = 1.552	m1 = 2.487	m1 = 4.08	m1 = 4.796	m1 = 5.154	m1 = 5.549
298.15 K	1067.23	1100.73	1143.55	1200.45	1218.48	1228.57	1235.88
303.15 K	1065.48	1098.86	1141.42	1198.12	1216.1	1226.17	1233.46
310.15 K	1062.76	1095.93	1138.29	1194.76	1212.71	1222.74	1229.98
318.15 K	1059.29	1092.31	1134.48	1190.76	1208.68	1218.68	1225.89
323.15 K	1056.9	1089.87	1131.99	1188.17	1206.07	1216.06	1223.25
328.15 K	1054.08	1086.99	1129.4	1185.52	1203.41	1213.41	1220.58

NC(CO)(CO)CO [2-amino-2-(hydroxymethyl)-1,3-propanediol] + O
mass density [kg/m3]
Conditions	m1 = 1.667	m1 = 2.294	m1 = 2.945	m1 = 3.66	m1 = 4.271	m1 = 4.908	m1 = 5.586
298.15 K	1043.81	1053.88	1065.01	1077.08	1086.34	1098.03	1106.97
303.15 K	1042.04	1052.01	1063.04	1075.01	1084.19	1095.81	1104.68
310.15 K	1039.3	1049.14	1060.05	1071.88	1080.98	1092.51	1101.29
318.15 K	1035.79	1045.51	1056.29	1068.02	1077.02	1088.46	1097.18
323.15 K	1033.4	1043.01	1053.79	1065.43	1074.4	1085.8	1094.46
328.15 K	1030.82	1039.97	1051.16	1062.67	1071.63	1083.04	1091.67

Reference: the NIST ThermoML archive (doi:10.1021/je900260g)
